Drawing on ChEMBL document CHEMBL1157248, “Polar steroidal compounds from the far eastern starfish Henricia leviuscula” (J Nat Prod, 2006), this text covers HC50, hemolysis and Activity for five compounds.

Common to all, as to type: cell-based, Erythrocyte
Data set [1] in a line: Toxicity in mouse erythrocytes assessed as hemolysis.
A short description of data set [2]: Toxicity in mouse erythrocytes assessed as hemolysis at 0.08 mM during 5 mins. The conditions noted are these: read-out: Activity.
The nature of data set [3]: Toxicity in mouse erythrocytes assessed as hemolysis at 0.1 mM during 5 mins.

As for `CO[C@@H]1[C@@H](OC)[C@H](O[C@@H]2C=C3[C@H](O)C[C@@]4(O)[C@@H]5[C@@H](O)[C@H](O)[C@H]([C@H](C)/C=C/C(C)CCO)[C@@]5(C)CC[C@@H]4[C@@]3(C)CC2)OC[C@H]1O` (some centres undefined), the HC50 in data set [1] was 80 µM. Further, the hemolysis at 5 min, 80 µM in data set [2] was 100%.
Consider `CC(C)[C@@H](O)CC[C@@H](C)[C@H]1C[C@@H](O)[C@@H]2[C@]1(C)CC[C@@H]1[C@@]3(C)CC[C@H](O)[C@H](O)[C@@H]3[C@H](O)C[C@]12O`, for which the HC50 in data set [1] turned out to be 53 µM. The hemolysis at 5 min, 100 µM in data set [3] (mouse erythrocytes, read-out: Activity) is 100%.
Turning to `C[C@H](CC[C@@H](O)C(C)(C)O)[C@H]1C[C@@H](O)[C@@H]2[C@]1(C)CC[C@@H]1[C@@]3(C)CC[C@H](O)[C@H](O)[C@@H]3[C@H](O)C[C@]12O`, in data set [1], the HC50 is 210 µM. Moreover, the Activity entry in data set [3] (erythrocyte, 5 min, 100 µM) is recorded as “Not Active”.
For `CO[C@@H]1[C@@H](OC)[C@H](O[C@@H]2C=C3[C@H](O)C[C@@]4(O)[C@@H]5[C@@H](O)[C@H](O)[C@H]([C@H](C)/C=C/[C@@H](C)[C@H](C)CO)[C@@]5(C)CC[C@@H]4[C@@]3(C)CC2)OC[C@H]1O` [HENRICIOSIDE H2], in data set [1], the 50% haemolytic concentration (HC50) came to 120 µM. In data set [2], the hemolysis at 5 min, 80 µM is 70%.
For the compound `CO[C@H]1[C@H](O[C@H]2CC[C@@]3(C)[C@H]([C@H]2O)[C@H](O)C[C@]2(O)[C@@H]3CC[C@]3(C)[C@@H]([C@H](C)CC[C@H](O[C@@H]4O[C@@H](CO)[C@H](O)[C@H]4O)C(C)C)C[C@H](O)[C@H]32)OC[C@@H](OC)[C@@H]1O` [LAEVIUSCOLOSIDE G], the HC50 in data set [1] came out at 130 µM.
